Test results: patent US12377112B2, “Methods of treating neurocognitive disorders, chronic pain and reducing inflammation” (priority 2019, dated 2025)

System: healthy subjects
Test: Phase 1 study: Social Cognition Panel (PET, RMET, SSR, SVO, TEQ)
Assay type: in vivo, human
Excerpt: In some embodiments, Social Cognition Panel scales are utilized to evaluate the safety and/or efficacy of psilocybin. The social cognition panel scales comprise the pictorial empathy test (PET), reading the mind in the eyes test (RMET), social value orientation (SVO) test, the Toronto Empathy Questionnaire (TEQ), and the scale of social responsibility (SSR).
In some embodiments, the Pictorial Empathy Test (PET) is utilized to evaluate the effect of psilocybin on affective empathy.
In some embodiments, Reading the Mind in the Eyes Test (RMET) is utilized to evaluate the safety and/or efficacy of psilocybin. The RMET has 36 items, in which subjects are presented with a photograph of the eyes region of the face and must choose 1 of 4 adjectives or phrases to describe the mental state of the person pictured. A definition handout is provided at the beginning of the task and a practice item precedes the first trial.
In some embodiments, the Social Value Orientation (SVO) test is utilized to evaluate the safety and/or efficacy of psilocybin. The SVO Slider Measure has 6 primary items with 9 secondary (and optional) items. All of the items have the same general form. Each item is a resource allocation choice over a well-defined continuum of joint payoffs.
In some embodiments, the Toronto Empathy Questionnaire (TEQ) is utilized to evaluate the safety and/or efficacy of psilocybin. The TEQ represents empathy as a primarily emotional process. […] The TEQ is a brief, reliable and valid instrument for the assessment of empathy. In some embodiments, after treating according to the methods of the disclosure, a subject's TEQ score increases by about 5%, about 10%, about 15%, about 20%, about 25%, about 30%, about 35%, about 40%, about 45%, about 50%, about 55%, about 60%, about 65%, about 70%, about 75%, about 80%, about 85%, about 90%, about 95%, or about 100%, about 110%, about 120%, about 130%, about 140%, about 150%, about 160%, about 170%, about 180%, about 190%, about 200%, about 210%, about 220%, about 230%, about 240%, about 250%, about 260%, about 270%, about 280%, about 290%, or about 300%, or more, compared to prior to treatment.
In some embodiments, the Scale of Social Responsibility (SSR) is utilized to evaluate the safety and/or efficacy of psilocybin. The SSR measures perceptions regarding the importance of ethics and social responsibility.
The Pictorial Empathy Test (PET), Reading the Mind in the Eyes Test (RMET), Scale of Social Responsibility (SSR), Social Value Orientation (SVO), and Toronto Empathy Questionnaire (TEQ) were performed. Table 28 summarizes the results of the mixed model for repeated measures (MMRM) analysis for each of the aforementioned social cognition panel scales measured on Day 7 and Day 84 after study drug administration.

In the case of `CN(C)CCc1c[nH]c2cccc(OP(=O)(O)O)c12` [Psilocybin, psilocybin], the “PET change from baseline, LS mean difference Psilocybin 10 mg-Placebo” value (Day 7) is reported as −0.1, the “PET change from baseline, LS mean difference Psilocybin 25mg-10mg” value (Day 7) is reported as 0.3 and the “PET change from baseline, LS mean difference Psilocybin 25 mg-Placebo” value (Day 7) is reported as 0.2. For the same compound, the “RMET change from baseline, LS mean difference Psilocybin 10 mg-Placebo” value (Day 7) was 0.1, the “RMET change from baseline, LS mean difference Psilocybin 25mg-10mg” value (Day 7) was 0.0 and the “RMET change from baseline, LS mean difference Psilocybin 25 mg-Placebo” value (Day 7) was 0.2. The “SSR compliance social rules change from baseline, LS mean difference Psilocybin 10 mg-Placebo” value (Day 7) was 0.0, the “SSR compliance social rules change from baseline, LS mean difference Psilocybin 25mg-10mg” value (Day 7) was 0.1 and the “SSR compliance social rules change from baseline, LS mean difference Psilocybin 25 mg-Placebo” value (Day 7) was 0.1. The “SSR fulfilling expectations change from baseline, LS mean difference Psilocybin 10 mg-Placebo” value (Day 7) was 0.1, the “SSR fulfilling expectations change from baseline, LS mean difference Psilocybin 25mg-10mg” value (Day 7) was 0.1 and the “SSR fulfilling expectations change from baseline, LS mean difference Psilocybin 25 mg-Placebo” value (Day 7) was 0.2. For the same compound, the “SSR global change from baseline, LS mean difference Psilocybin 10 mg-Placebo” value (Day 7) was 1.2, the “SSR global change from baseline, LS mean difference Psilocybin 25mg-10mg” value (Day 7) was 1.6 and the “SSR global change from baseline, LS mean difference Psilocybin 25 mg-Placebo” value (Day 7) was 2.8. For the same compound, the “SVO angle change from baseline, LS mean difference Psilocybin 10 mg-Placebo” value (Day 7) was 3.4, the “SVO angle change from baseline, LS mean difference Psilocybin 25mg-10mg” value (Day 7) was −1.3 and the “SVO angle change from baseline, LS mean difference Psilocybin 25 mg-Placebo” value (Day 7) was 2.1. The “SVO type change from baseline, LS mean difference Psilocybin 10 mg-Placebo” value (Day 7) was 0.1, the “SVO type change from baseline, LS mean difference Psilocybin 25mg-10mg” value (Day 7) was −0.0 and the “SVO type change from baseline, LS mean difference Psilocybin 25 mg-Placebo” value (Day 7) was 0.1. The “TEQ change from baseline, LS mean difference Psilocybin 10 mg-Placebo” value (Day 7) was 0.1, the “TEQ change from baseline, LS mean difference Psilocybin 25mg-10mg” value (Day 7) was 0.1 and the “TEQ change from baseline, LS mean difference Psilocybin 25 mg-Placebo” value (Day 7) was 0.2. The “PET change from baseline, LS mean difference Psilocybin 10 mg-Placebo” value (Day 84) was −0.1, the “PET change from baseline, LS mean difference Psilocybin 25mg-10mg” value (Day 84) was 0.3 and the “PET change from baseline, LS mean difference Psilocybin 25 mg-Placebo” value (Day 84) was 0.1. The “RMET change from baseline, LS mean difference Psilocybin 10 mg-Placebo” value (Day 84) was 0.2, the “RMET change from baseline, LS mean difference Psilocybin 25mg-10mg” value (Day 84) was 0.3 and the “RMET change from baseline, LS mean difference Psilocybin 25 mg-Placebo” value (Day 84) was 0.5. For the same compound, the “SSR compliance social rules change from baseline, LS mean difference Psilocybin 10 mg-Placebo” value (Day 84) was −0.0, the “SSR compliance social rules change from baseline, LS mean difference Psilocybin 25mg-10mg” value (Day 84) was 0.1 and the “SSR compliance social rules change from baseline, LS mean difference Psilocybin 25 mg-Placebo” value (Day 84) was 0.1. For the same compound, the “SSR fulfilling expectations change from baseline, LS mean difference Psilocybin 10 mg-Placebo” value (Day 84) was −0.1, the “SSR fulfilling expectations change from baseline, LS mean difference Psilocybin 25mg-10mg” value (Day 84) was 0.2 and the “SSR fulfilling expectations change from baseline, LS mean difference Psilocybin 25 mg-Placebo” value (Day 84) was 0.0. The “SSR global change from baseline, LS mean difference Psilocybin 10 mg-Placebo” value (Day 84) was 0.3, the “SSR global change from baseline, LS mean difference Psilocybin 25mg-10mg” value (Day 84) was 1.8 and the “SSR global change from baseline, LS mean difference Psilocybin 25 mg-Placebo” value (Day 84) was 2.2. For the same compound, the “SVO angle change from baseline, LS mean difference Psilocybin 10 mg-Placebo” value (Day 84) was 3.4, the “SVO angle change from baseline, LS mean difference Psilocybin 25mg-10mg” value (Day 84) was −1.0 and the “SVO angle change from baseline, LS mean difference Psilocybin 25 mg-Placebo” value (Day 84) was 2.4. For the same compound, the “SVO type change from baseline, LS mean difference Psilocybin 10 mg-Placebo” value (Day 84) was 0.1, the “SVO type change from baseline, LS mean difference Psilocybin 25mg-10mg” value (Day 84) was −0.0 and the “SVO type change from baseline, LS mean difference Psilocybin 25 mg-Placebo” value (Day 84) was 0.1. For the same compound, the “TEQ change from baseline, LS mean difference Psilocybin 10 mg-Placebo” value (Day 84) was 0.1, the “TEQ change from baseline, LS mean difference Psilocybin 25mg-10mg” value (Day 84) was 0.0 and the “TEQ change from baseline, LS mean difference Psilocybin 25 mg-Placebo” value (Day 84) was 0.1. For the same compound, the “SSR fulfilling expectations change from baseline, LS mean” value (Psilocybin 10 mg, Day 7) was −0.1, the “SSR fulfilling expectations change from baseline, LS mean” value (Psilocybin 10 mg, Day 84) was −0.2 and the “TEQ change from baseline, LS mean” value (Psilocybin 10 mg, Day 84) was −0.1. The “SSR fulfilling expectations change from baseline, LS mean” value (Psilocybin 25 mg, Day 7) was −0.0, the “SSR fulfilling expectations change from baseline, LS mean” value (Psilocybin 25 mg, Day 84) was −0.0 and the “TEQ change from baseline, LS mean” value (Psilocybin 25 mg, Day 84) was −0.0.
